pKi: −log10 of the molar value. Bounds are passed on as bounds.

The target in one assay is GST-Bcl-2 (Homo sapiens (Human), UniProt P10415). Description: Time Resolved-Fluorescence Resonance Energy Transfer (TR-FRET) Bcl-2 binding assay.
Chain of GST-Bcl-2 (P10415 whole entry): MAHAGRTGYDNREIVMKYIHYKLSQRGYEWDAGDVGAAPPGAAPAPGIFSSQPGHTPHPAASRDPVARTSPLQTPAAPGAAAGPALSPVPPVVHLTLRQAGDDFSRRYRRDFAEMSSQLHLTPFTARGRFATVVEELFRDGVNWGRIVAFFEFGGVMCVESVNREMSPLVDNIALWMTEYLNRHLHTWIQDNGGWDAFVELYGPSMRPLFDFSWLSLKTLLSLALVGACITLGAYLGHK
Details: not given
The essentials: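 Competition TR-FRET: GST-Bcl-2 with fluorescent Bak peptide probe and Tb-anti-GST antibody, compounds serially diluted from 50 μM (2× start, 10% DMSO).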
A general note: TR-FRET usually uses a lanthanide donor and a delayed reading to cut background.
The term pKi denotes the Ki on a negative log10 scale, so that one unit is a factor of ten. A low value points to a high Ki. For the molecule `O=C(NS(=O)(=O)c1ccc(N[C@H]2CC[C@H](N3CCOCC3)CC2)c([N+](=O)[O-])c1)c1ccc(N2CCN(CC3=C(c4ccc(Cl)cc4)CCOCC3)CC2)cc1Oc1cc2cc[nH]c2cc1Cl` [Example 315, Trans-2-[(6-chloro-1H-indol-5-yl)oxy]-4-(4-{[5-(4-chlorophenyl)-2,3,6,7-tetrahydrooxepin-4-yl]methyl}piperazin-1-yl)-N-({4-[(4-morpholin-4-ylcyclohexyl)amino]-3-nitrophenyl}sulfonyl)benzamide], the pKi is 8.34.

In turn, `CC1(C)CCC(CN2CCN(c3ccc(C(=O)NS(=O)(=O)c4ccc(N[C@H]5CC[C@H](N6CCN(C7CCOCC7)CC6)CC5)c([N+](=O)[O-])c4)c(Oc4cc5cc[nH]c5cc4F)c3)CC2)=C(c2ccc(Cl)cc2)C1` [Example 336, Trans-4-(4-{[2-(4-chlorophenyl)-4,4-dimethylcyclohex-1-en-1-yl]methyl}piperazin-1-yl)-2-[(6-fluoro-1H-indol-5-yl)oxy]-N-[(3-nitro-4-{[4-(4-tetrahydro-2H-pyran-4-ylpiperazin-1-yl)cyclohexyl]amino}phenyl)sulfonyl]benzamide] had a pKi of more than 11.00.

The assay is the same for the next values; noted with them: GST-Bcl-2 1 nM, F-Bak peptide probe 100 nM, Tb-anti-GST antibody 1 nM; Ki by Wang's equation.
`O=C(NS(=O)(=O)c1ccc(NCC2CCOCC2)c([N+](=O)[O-])c1)c1ccc(N2CCN(Cc3ccccc3-c3ccc(Cl)cc3)CC2)cc1Oc1ccc(-n2ccnc2)cc1` [Example 76, 4-(4-((4′-chloro-1,1′-biphenyl-2-yl)methyl)piperazin-1-yl)-2-(4-(1H-imidazol-1-yl)phenoxy)-N-((3-nitro-4-((tetrahydro-2H-pyran-4-ylmethyl)amino)phenyl)sulfonyl)benzamide] gave a pKi of 6.62. The molecule `O=C(NS(=O)(=O)c1ccc(NCC2CCOCC2)c([N+](=O)[O-])c1)c1ccc(N2CCN(Cc3ccccc3-c3ccc(Cl)cc3)CC2)cc1Oc1ccc(OCc2ccccc2)cc1` [Example 88, 2-(4-(benzyloxy)phenoxy)-4-(4-((4′-chloro-1,1′-biphenyl-2-yl)methyl)piperazin-1-yl)-N-((3-nitro-4-((tetrahydro-2H-pyran-4-ylmethyl)amino)phenyl)sulfonyl)benzamide] showed a pKi of less than 5.92. `CC(C)N1CCC2(CCC(c3ccc(Cl)cc3)=C(CN3CCN(c4ccc(C(=O)NS(=O)(=O)c5ccc(NCC6CCOCC6)c([N+](=O)[O-])c5)c(Oc5cnc(N)c(Cl)c5)c4)CC3)C2)CC1` [Example 392, 2-[(6-amino-5-chloropyridin-3-yl)oxy]-4-(4-{[9-(4-chlorophenyl)-3-isopropyl-3-azaspiro[5.5]undec-8-en-8-yl]methyl}piperazin-1-yl)-N-({3-nitro-4-[(tetrahydro-2H-pyran-4-ylmethyl)amino]phenyl}sulfonyl)benzamide] had a negative logarithm of the Ki (pKi) of more than 11.00. The same measure, in the same setting: the same measure for `Cn1cnc2cc(Oc3cc(N4CCN(Cc5ccccc5-c5ccc(Cl)cc5)CC4)ccc3C(=O)NS(=O)(=O)c3ccc(NCCCN4CCOCC4)c([N+](=O)[O-])c3)ccc21` [Example 102, 4-(4-((4′-chloro-1,1′-biphenyl-2-yl)methyl)piperazin-1-yl)-2-((1-methyl-1H-benzimidazol-5-yl)oxy)-N-((4-((3-morpholin-4-ylpropyl)amino)-3-nitrophenyl)sulfonyl)benzamide]: 7.36; for `CC1(C)CCC(CN2CCN(c3ccc(C(=O)NS(=O)(=O)c4ccc(NCC5CCOC5)c([N+](=O)[O-])c4)c(Oc4cnc(N)c(Cl)c4)c3)CC2)=C(c2ccc(Cl)cc2)C1` (stereo not shown) [Example 389, 2-[(6-amino-5-chloropyridin-3-yl)oxy]-4-(4-{[2-(4-chlorophenyl)-4,4-dimethylcyclohex-1-en-1-yl]methyl}piperazin-1-yl)-N-({3-nitro-4-[(tetrahydrofuran-3-ylmethyl)amino]phenyl}sulfonyl)benzamide]: more than 11.00; for `CC1(C)CCC(CN2CCN(c3ccc(C(=O)NS(=O)(=O)c4cnc(OCC5(F)CCOCC5)c(Cl)c4)c(Oc4cc5cc[nH]c5cc4F)c3)CC2)=C(c2ccc(Cl)cc2)C1` [Example 326, N-({5-chloro-6-[(4-fluorotetrahydro-2H-pyran-4-yl)methoxy]pyridin-3-yl}sulfonyl)-4-(4-{[2-(4-chlorophenyl)-4,4-dimethylcyclohex-1-en-1-yl]methyl}piperazin-1-yl)-2-[(6-fluoro-1H-indol-5-yl)oxy]benzamide]: 10.43. `CC1(C)CCC(CN2CCN(c3ccc(C(=O)NS(=O)(=O)c4cnc(OCC5COCCO5)c(Br)c4)c(Oc4cc5cc[nH]c5cc4F)c3)CC2)=C(c2ccc(Cl)cc2)C1` (stereo not shown) [Example 306, N-{[5-bromo-6-(1,4-dioxan-2-ylmethoxy)pyridin-3-yl]sulfonyl}-4-(4-{[2-(4-chlorophenyl)-4,4-dimethylcyclohex-1-en-1-yl]methyl}piperazin-1-yl)-2-[(6-fluoro-1H-indol-5-yl)oxy]benzamide] showed a pKi of 9.17.

The molecule `CC1(C)CCC(CN2CCN(c3ccc(C(=O)NS(=O)(=O)c4ccc(OCC#CCN5CCOCC5)c([N+](=O)[O-])c4)c(Oc4cc5cc[nH]c5cc4F)c3)CC2)=C(c2ccc(Cl)cc2)C1` [Example 317, 4-(4-{[2-(4-chlorophenyl)-4,4-dimethylcyclohex-1-en-1-yl]methyl}piperazin-1-yl)-2-[(6-fluoro-1H-indol-5-yl)oxy]-N-({4-[(4-morpholin-4-ylbut-2-ynyl)oxy]-3-nitrophenyl}sulfonyl)benzamide] gave a pKi of 9.69. The molecule `O=C(NS(=O)(=O)c1ccc(NCC2CCOCC2)c([N+](=O)[O-])c1)c1ccc(N2CCN(Cc3ccccc3-c3ccc(Cl)cc3)CC2)cc1Oc1ccccc1-c1ccccc1` [Example 84, 2-(1,1′-biphenyl-2-yloxy)-4-(4-((4′-chloro-1,1′-biphenyl-2-yl)methyl)piperazin-1-yl)-N-((3-nitro-4-((tetrahydro-2H-pyran-4-ylmethyl)amino)phenyl)sulfonyl)benzamide] showed a pKi of 7.86. Still for that read-out and setting: the same measure for `CCN1CCOCC1COc1ccc(S(=O)(=O)NC(=O)c2ccc(N3CCN(CC4=C(c5ccc(Cl)cc5)CC(C)(C)CC4)CC3)cc2Oc2cc3cc[nH]c3cc2F)cc1[N+](=O)[O-]` (stereo not shown) [Example 328, 4-(4-{[2-(4-chlorophenyl)-4,4-dimethylcyclohex-1-en-1-yl]methyl}piperazin-1-yl)-N-({4-[(4-ethylmorpholin-3-yl)methoxy]-3-nitrophenyl}sulfonyl)-2-[(6-fluoro-1H-indol-5-yl)oxy]benzamide]: 10.17. `COc1cccc(Oc2cc(N3CCN(CC4=C(c5ccc(Cl)cc5)CC(C)(C)CC4)CC3)ccc2C(=O)NS(=O)(=O)c2ccc(NC3CCN(C)CC3)c([N+](=O)[O-])c2)c1` [Example 166, 4-(4-{[2-(4-chlorophenyl)-4,4-dimethylcyclohex-1-en-1-yl]methyl}piperazin-1-yl)-2-(3-methoxyphenoxy)-N-({4-[(1-methylpiperidin-4-yl)amino]-3-nitrophenyl}sulfonyl)benzamide] gave a pKi of 10.09. On the same count and under the same terms, under `CN1CCC(Nc2ccc(S(=O)(=O)NC(=O)c3ccc(N4CCN(CC5=C(c6ccc(Cl)cc6)CC(C)(C)CC5)CC4)cc3Oc3cccc(Cl)c3Cl)cc2[N+](=O)[O-])CC1` [Example 54, 4-(4-((2-(4-chlorophenyl)-4,4-dimethylcyclohex-1-en-1-yl)methyl)piperazin-1-yl)-2-(2,3-dichlorophenoxy)-N-((4-((1-methylpiperidin-4-yl)amino)-3-nitrophenyl)sulfonyl)benzamide] stands 10.09; under `Cc1ccccc1Oc1cc(N2CCN(CC3=C(c4ccc(Cl)cc4)CC(C)(C)CC3)CC2)ccc1C(=O)NS(=O)(=O)c1ccc(NC2CCN(C)CC2)c([N+](=O)[O-])c1` [Example 181, 4-(4-{[2-(4-chlorophenyl)-4,4-dimethylcyclohex-1-en-1-yl]methyl}piperazin-1-yl)-2-(2-methylphenoxy)-N-({4-[(1-methylpiperidin-4-yl)amino]-3-nitrophenyl}sulfonyl)benzamide], 9.92; under `CC1(C)CCC(CN2CCN(c3ccc(C(=O)NS(=O)(=O)c4cnc(NC5CCN(C6CCOCC6)CC5)c(Br)c4)c(Oc4cc5cc[nH]c5cc4F)c3)CC2)=C(c2ccc(Cl)cc2)C1` [Example 312, N-({5-bromo-6-[(1-tetrahydro-2H-pyran-4-ylpiperidin-4-yl)amino]pyridin-3-yl}sulfonyl)-4-(4-{[2-(4-chlorophenyl)-4,4-dimethylcyclohex-1-en-1-yl]methyl}piperazin-1-yl)-2-[(6-fluoro-1H-indol-5-yl)oxy]benzamide], 9.27. `CN1CCC(Nc2ccc(S(=O)(=O)NC(=O)c3ccc(N4CCN(CC5=C(c6ccc(Cl)cc6)CC(C)(C)OC5)CC4)cc3Oc3cccc(I)c3)cc2[N+](=O)[O-])CC1` [Example 161, 4-(4-{[4-(4-chlorophenyl)-6,6-dimethyl-5,6-dihydro-2H-pyran-3-yl]methyl}piperazin-1-yl)-2-(3-iodophenoxy)-N-({4-[(1-methylpiperidin-4-yl)amino]-3-nitrophenyl}sulfonyl)benzamide] showed a pKi of 10.51. On the same count and under the same terms, the same measure for `CC1(C)CCC(CN2CCN(c3ccc(C(=O)NS(=O)(=O)c4ccc(OCC5COCCO5)c([N+](=O)[O-])c4)c(Oc4cc5cc[nH]c5cc4Cl)c3)CC2)=C(c2ccc(Cl)cc2)C1` (stereo not shown) [Example 290, 2-[(6-chloro-1H-indol-5-yl)oxy]-4-(4-{[2-(4-chlorophenyl)-4,4-dimethylcyclohex-1-en-1-yl]methyl}piperazin-1-yl)-N-{[4-(1,4-dioxan-2-ylmethoxy)-3-nitrophenyl]sulfonyl}benzamide]: 9.60; for `CC1(C)CCC(CN2CCN(c3ccc(C(=O)NS(=O)(=O)c4ccc(NC5CCN(C6CCCC6)CC5)c([N+](=O)[O-])c4)c(Oc4cccc(F)c4F)c3)CC2)=C(c2ccc(Cl)cc2)C1` [Example 133, 4-(4-{[2-(4-chlorophenyl)-4,4-dimethylcyclohex-1-en-1-yl]methyl}piperazin-1-yl)-N-({4-[(1-cyclopentylpiperidin-4-yl)amino]-3-nitrophenyl}sulfonyl)-2-(2,3-difluorophenoxy)benzamide]: 10.26.

The record behind these values is US8952157B2, “Apoptosis-inducing agents for the treatment of cancer and immune and autoimmune diseases” (AbbVie Inc., priority 2008, dated 2015).
